Literature values in publication PMC10272271, “MAM-2201 acute administration impairs motor, sensorimotor, prepulse inhibition, and memory functions in mice: a comparison with its analogue AM-2201” (Psychopharmacology, 2023).

Tested on: CD-1 male mice
Set-up: method as in Bilel et al. ([2020])
Settings: i.p., value ± SEM, elaborated from earlier data, ref Bilel et al. ([2020]); cited from earlier work

SMILES: O=C(c1cccc2ccccc12)c1cn(CCCCCF)c2ccccc12 [AM-2201, 1-[(5-Fluoropentyl)-1H-indol-3-yl](1-naphthylenyl) methanone]
- ED50 (mg/kg), Startle reflex: 1.291 ± 0.010 mg/kg
